Results as given in ChEMBL document CHEMBL1148101, “Structure/activity relationship of some natural monoterpenes as acaricides against Psoroptes cuniculi” (1995).

Experiments:
Format in all cases: functional
Psoroptes ovis [1] = test: Acaricidal activity against Psoroptes cuniculi at 1 uL after 24 hrs by inhalation assay
Psoroptes ovis [2] = test: Acaricidal activity against Psoroptes cuniculi at 0.125% dilution in physiological saline after 48 hrs by direct contact assay
Psoroptes ovis [3] = test: Acaricidal activity against Psoroptes cuniculi at 0.25% dilution in physiological saline after 48 hrs by direct contact assay
Psoroptes ovis [4] = test: Acaricidal activity against Psoroptes cuniculi at 6 uL after 24 hrs by inhalation assay
Psoroptes ovis [5] = test: Acaricidal activity against Psoroptes cuniculi at 1% dilution in physiological saline after 48 hrs by direct contact assay
Psoroptes ovis [6] = test: Acaricidal activity against Psoroptes cuniculi at 3 uL after 24 hrs by inhalation assay
Psoroptes ovis [7] = test: Acaricidal activity against Psoroptes cuniculi at 36 uL after 24 hrs by inhalation assay
Psoroptes ovis [8] = test: Acaricidal activity against Psoroptes cuniculi at 18 uL after 24 hrs by inhalation assay

| SMILES | Activity (Psoroptes ovis [1]) | Activity (Psoroptes ovis [2]) | Activity (Psoroptes ovis [3]) | Activity (Psoroptes ovis [4]) | Activity (Psoroptes ovis [5]) | Activity (Psoroptes ovis [6]) | Activity (Psoroptes ovis [7]) | Activity (Psoroptes ovis [8]) |
| --- | --- | --- | --- | --- | --- | --- | --- | --- |
| CC1=CC[C@@H](C(C)(C)O)CC1 [ALPHA-TERPINEOL] | 73.3% | 100% | 100% | 98.3% | 100% | 98.3% | – | – |
| C=C(C)[C@H]1CC=C(C)CC1 [D-LIMONENE] | 0% | 0% | 0% | 0% | 0% | 0% | – | – |
| C=CCc1ccc(OC)cc1 [ESTRAGOLE] | 0% | 0% | 63.3% | 5% | 100% | 6.7% | – | – |
| C=CCc1ccc(O)c(OC)c1 [EUGENOL] | 86.7% | 100% | 100% | 100% | 100% | 96.7% | – | – |
| CC1=CCC(C(C)C)=CC1 [GAMMA-TERPINENE] | 0% | 0% | 0% | 0% | 0% | 0% | – | – |
| CC(C)=CCC/C(C)=C/CO [GERANIOL] | 95% | 100% | 100% | 96.7% | 100% | 93.3% | – | – |
| C=CC(C)(O)CCC=C(C)C (stereo not drawn) [LINALOOL] | 36.7% | 97% | 100% | 100% | 100% | 75% | – | – |
| C=CC(C)(CCC=C(C)C)OC(C)=O (stereo not drawn) [LINALYL ACETATE] | 0% | 5% | 35% | 20% | 40% | 13.3% | – | – |
| CC1CCC(C(C)C)C(O)C1 (stereo not drawn) [MENTHOL] | – | 100% | 100% | 100% | 100% | – | 100% | 100% |
| C=CC(=C)CCC=C(C)C [MYRCENE] | 0% | 0% | 0% | 6.7% | 0% | 5.2% | – | – |
| CC(C)=CCC/C(C)=C\CO [NEROL] | 36.7% | 100% | 98.3% | 100% | 100% | 83.3% | – | – |
| CC1=CCC(O)(C(C)C)CC1 (stereo not drawn) [TERPINEOL] | 5% | 100% | 100% | 100% | 100% | 41.7% | – | – |
| Cc1ccc(C(C)C)c(O)c1 [THYMOL] | – | 100% | 100% | 100% | 100% | – | 100% | 100% |
